Test results taken from US12629359B2 (UNIVERSITA' DEGLI STUDI DI BRESCIA, priority 2020, dated 2026).
pEC50: −log10 of the molar value. Entries after “also recorded” stand apart in the source; their conditions may differ.

What was measured:
[1] = test system: primary mesencephalic cultures; experiment: MTT cell viability assay; type: cell-based, mouse; conditions: 24 h
Method: The cytotoxic effect of compounds treatment was measured by evaluating mitochondrial dehydrogenase activity using the MTT salt assay.
Neuronal differentiated SK—N—SH cells were thus exposed to different concentrations of I-threo, IV-threo, I-erythro, V-threo and V-erythro as described above, and then used for the MTT cell viability assay.
Animals: C57BL/6J wt mice (C57BL/6J) (Charles River, Wilmington, MA) used in this study, were bred in our animal house facility at the Department of Molecular and Translational Medicine of University of Brescia. Animals were maintained under a 12h light-dark cycle at a room temperature (rt) of 22° C. and had ad libitum food and water. All experiments were made in accordance to Directive 2010/63/EU of the European Parliament and of the Council of 22 Sep. 2010 on the protection of animals used. All experimental and surgical procedures conformed to the National Research Guide for the Care and Use of Laboratory Animals were approved by the Animal Research Committees of the University of Brescia (Protocol Permit 719/2015-PR). All achievements were made to minimize animal suffering and to reduce the number of animals used. Primary neuronal cultures from mesencephalic tissues were dissected from C57BL/6J 13-days embryos. Briefly, after mechanical dissociation the single cells were re-suspended in Neurobasal medium containing 100 μg/ml penicillin, 100 μg/ml streptomycin, 0.5 mM glutamine and 1% B27 supplement. Cells were then centrifuged and cell count and viability assays were performed using the Trypan Blue exclusion test. Cells were seeded onto poly-D-lysine-coated glass coverslides in 24-well plates (14 μg/mL) for immunocytochemistry (100000 cells/well). Cells were maintained at 37° C. under a humidified atmosphere of 5% CO2 and […] for at least 10 days in vitro (DIV 10) prior to their use to allow their maturation. At DIV 10, cells were treated with increasing concentrations (0.01 μM-0.1 μM-1 μM-[…]) of the different compounds (I-threo, IV-threo, I-erythro, V-threo, VI-threo). Twenty-four h after the treatments, culture medium was removed and 300 μL of MTT 0.5 mg/mL diluted in culture medium was added to each well. After 90′ incubation at 37° C., the medium was removed and 250 μL aliquots of DMSO were added to each well to solubilize the formazan crystals. Absorbance was measured at 570 nm using a microplate reader. Cell viability was expressed as absorbance value.

[2] = test system: alpha-synuclein aggregation in SK—N—SH cells; experiment: Alpha-synuclein aggregation after glucose deprivation in SK-N-SH alpha-synuclein stable clones (immunocytochemistry); type: cell-based, human
Method: Human neuroblastoma SK—N—SH full length (fl) alpha-synuclein stable clones were seeded onto poly-D-lysine-coated glass coverslides in 24-well plates and were grown in complete medium comprising Dulbecco's modified Eagle's medium with 1000 mg glucose/l supplemented with 10% heat-inactivated fetal bovine serum, 100 μg/ml penicillin and 100 μg/ml streptomycin. Cells were maintained at 37° C. under a humidified atmosphere of 5% CO2 and […]. At 80% confluence, cells underwent glucose deprivation (GD) in order to induce alpha-synuclein aggregation (Bellucci, A.; et al. Journal of neurochemistry 2008, 106, 560-577). Briefly, GD was performed through an incubation of the cells with Hank's balanced salt solution supplemented with 2 mM glutamine and 10% heat-inactivated fetal bovine serum, for 1 h at 37° C. […] After 24 h of treatment, cells were fixed by incubating for 15 min in 4% paraformaldehyde with 4% sucrose in 1 M PBS, pH 7.4. The fixed cells were then stored in PBS-containing 0.05% sodium azide. Slides were incubated for 1 h at room temperature in blocking solution [2% w/v bovine serum albumin (BSA) plus 3% v/v normal goat serum in PBS], then overnight at 4° C. with the primary antibody (Syn211 antibody against alpha-synuclein) at the optimal working dilution. On the following day, cells were incubated for 1 h at room temperature with the Cy3-conjugated secondary antibody diluted in 0.1% Triton X-100 PBS plus BSA 1 mg/ml. Finally, cell nuclei were counterstained with Hoechst 33258 dye, and the coverslips were mounted onto glass slides using Vectashield.

SYN120 tg mice [3] = experiment: Open-field motility after acute i.p. injection in SYN120 tg mice; type: in vivo, mouse; conditions: acute i.p. 10 mg/kg, 12 month-old SYN120 tg mice
Source text: We investigated the ability of compound I-threo to stimulate the motility of Parkinson's disease mice more efficiently that MPH. […] All experiments were made in accordance with Directive 2010/63/EU of the European Parliament and of the Council of 22 Sep. 2010 on the protection of animals used. All experimental procedures conformed to the National Research Guide for the Care and Use of Laboratory Animals and were approved by the Animal Research Committees of the University of Brescia (Protocol Permit 719/2015-PR). Three different groups of 12 month-old SYN120 tg mice (N=3 animals per group) were used for the motility assay by using the open-field behavioural paradigm. The motility of the animals in the open-field arena was registered and analysed by using the Any-Maze system. […] The total distance travelled by the mice during 2.5 minutes intervals was plotted on graphs.

SYN120 tg mice [4] = experiment: Immunohistochemistry of nigrostriatal alpha-synuclein deposition and striatal dopaminergic fibers after chronic treatment of SYN120 tg mice; type: in vivo, mouse; conditions: daily i.p. 5 mg/kg for 6 weeks
Source text: After the behavioral studies animals were sacrificed by transcardiac perfusion to collect their brains, which were used for immunohistochemical studies aimed at evaluating the efficacy of compound I-threo to reduce pathological alpha-synuclein deposition and neuroprotection in the nigrostriatal system.
First, we quantified aggregated alpha-synuclein pathological deposition by using an antibody specifically recognizing aggregated alpha-synuclein in the subtantia nigra and striatum of mice.
Then alpha-synuclein aggregation was evaluated also by using Thioflavin-S a dye recognizing fibrillary aggregates. […] Please note that dopaminergic neurons or fibers in the images were labelled in light blue.
Finally, we evaluated the neuroprotective effect of the chronic treatment with compound I-threo by quantifying the recovery of striatal dopaminergic fibers in the SYN120 tg mice treated with the compound when compared to the vehicle-treated animals.

SYN120 tg mice [5] = experiment: Open-field motility after chronic 6 weeks treatment in SYN120 tg mice; type: in vivo, mouse; conditions: daily i.p. 5 mg/kg for 6 weeks, vs vehicle
Method: Two groups of 12 month-old SYN120 tg mice (N=4 animals per group) were subjected to daily i.p. administration of either vehicle or compound I-threo (5 mg/kg) for 6 weeks. All experiments were made in accordance with Directive 2010/63/EU of the European Parliament and of the Council of 22 Sep. 2010 on the protection of animals used. All experimental or surgical procedures conformed to the National Research Guide for the Care and Use of Laboratory Animals and were approved by the Animal Research Committees of the University of Brescia (Protocol Permit 719/2015-PR). At the end of treatment, the total distance travelled by the mice was recorded in the open field arena. […] Student's t-test. N=3 for each experimental group.

| Compound | cell viability (MTT) at 100 μM [1] | alpha-synuclein aggregates seen in images after GD ([2]; 10 μM, 24 h, vs non-treated (NT) cells, preliminary) | formation of alpha-synuclein inclusions after GD (immunofluorescence intensity and average particle size) ([2]; 10 μM, 24 h after 1 h glucose deprivation, vs untreated, hydrochloride) | pEC50 ([2]; Homo sapiens, SK-N-SH cells, read-out: EC50 in reducing alpha-synuclein aggregation) | efficacy (% effect) in reducing alpha-synuclein aggregation, compared with MPH ([2]; SK-N-SH cells) | EC50 fold lower than that of MPH ([2]; SK-N-SH cells, I-threo vs MPH) [fold] | cell viability (MTT) at 100 μM ([1]; hydrochloride) | toxic effects (MTT) at the working concentrations ([1]; concentrations reducing aggregation or stimulating interaction) | motility (total distance travelled) in open field arena (SYN120 tg mice [3]) | Thioflavin-S signal in substantia nigra and striatum (SYN120 tg mice [4]) | aggregated alpha-synuclein in substantia nigra and striatum (SYN120 tg mice [4]; vs vehicle) | striatal TH-positive dopaminergic fibers (SYN120 tg mice [4]; vs vehicle) | total motility (total distance travelled) in open field (SYN120 tg mice [5]) |
| --- | --- | --- | --- | --- | --- | --- | --- | --- | --- | --- | --- | --- | --- |
| COC(=O)[C@H](c1ccc(C)cc1)C1CCCCN1.Cl (stereo partly drawn) [I-erythro] | did not result toxic |  |  |  |  |  |  |  |  |  |  |  |  |
| COC(=O)[C@@H](c1ccc(C)cc1)C1CCCCN1.Cl (stereo partly drawn) [I-threo, threo methyl 2-(piperidin-2-yl)-2-(p-tolyl)acetate hydrochloride] |  | no aggregates were observed | significantly reduce the formation of alpha-synuclein inclusions; also recorded: significantly reduce alpha-synuclein aggregation in vitro | 6.37 | almost comparable | 200 | reduce the cell viability; also recorded: significant decrease in cell viability | did not exhibit toxic effects | improve the motility of SYN120 tg mice more efficiently than MPH | marked reduction of thioflavin-S signal | statistically significant reduction of aggregated alpha-synuclein | significant recovery of striatal TH-positive dopaminergic fibers | significant improvement in total motility |
